Assays:
[1] = test system: barnyardgrass; experiment: Test B flooded paddy test; assay type: in vivo, Echinochloa crus-galli; details: Flood, 250 g ai/ha; 0 to 100 scale where 0 is no effect and 100 is complete control
Method in brief: (§1)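 Greenhouse flooded-pot test: compounds dosed into 3 cm standing water over 2-leaf plants, flood held constant. Rated visually after 13–15 days on 0–100 (complete control = 100); a dash marks no test result.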

[2] = test system: pigweed; experiment: Test A preemergence; assay type: in vivo, Amaranthus retroflexus; details: for Plant response rating, Pigweed: 0 to 100 scale where 0 is no effect and 100 is complete control
Method in brief: (§2)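 Compounds in non-phytotoxic solvent with surfactant applied as soil spray preemergence, or postemergence to plants 2-10 cm at one- to two-leaf stage, in loam/sand. After approximately 10 days in greenhouse, injury rated visually versus untreated controls, 0 (no effect) to 100 (complete control).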

[3] = test system: ragweed; experiment: Test A preemergence; assay type: in vivo, Ambrosia elatior; details: for Plant response rating, Ragweed: 0 to 100 scale where 0 is no effect and 100 is complete control
Method in brief: as §2

[4] = test system: blackgrass; experiment: Test A postemergence; assay type: in vivo, Alopecurus myosuroides; details: for Plant response rating, Blackgrass: 0 to 100 scale, 0 no effect, 100 complete control
Method in brief: as §2

[5] = test system: giant foxtail; experiment: Test A postemergence; assay type: in vivo, Setaria faberii; details: for Plant response rating, Foxtail, Giant: 0 to 100 scale, 0 no effect, 100 complete control
Method in brief: as §2

[6] = test system: ragweed; experiment: Test A postemergence; assay type: in vivo, Ambrosia elatior; details: for Plant response rating, Ragweed: 0 to 100 scale, 0 no effect, 100 complete control
Method in brief: as §2

[7] = test system: barnyardgrass; experiment: Test A postemergence; assay type: in vivo, Echinochloa crus-galli; details: for Plant response rating, Barnyardgrass: 0 to 100 scale, 0 no effect, 100 complete control
Method in brief: as §2

[8] = test system: wheat; experiment: Test A postemergence; assay type: in vivo, Triticum aestivum; details: for Plant response rating, Wheat: 0 to 100 scale, 0 no effect, 100 complete control
Method in brief: as §2

[9] = test system: corn; experiment: Test A postemergence; assay type: in vivo, Zea mays; details: for Plant response rating, Corn: 0 to 100 scale, 0 no effect, 100 complete control
Method in brief: as §2

[10] = test system: giant foxtail; experiment: Test A preemergence; assay type: in vivo, Setaria faberii; details: for Plant response rating, Foxtail, Giant: 0 to 100 scale where 0 is no effect and 100 is complete control
Method in brief: as §2

[11] = test system: Italian ryegrass; experiment: Test A preemergence; assay type: in vivo, Lolium multiflorum; details: for Plant response rating, Ryegrass, Italian: 0 to 100 scale where 0 is no effect and 100 is complete control
Method in brief: as §2

[12] = test system: sedge, umbrella; experiment: Test B flooded paddy test; assay type: in vivo, Cyperus difformis; details: Flood, 250 g ai/ha; 0 to 100 scale where 0 is no effect and 100 is complete control
Method in brief: as §1

[13] = test system: pigweed; experiment: Test A postemergence; assay type: in vivo, Amaranthus retroflexus; details: for Plant response rating, Pigweed: 0 to 100 scale, 0 no effect, 100 complete control
Method in brief: as §2

[14] = test system: Heteranthera limosa; experiment: Test B flooded paddy test; assay type: in vivo; details: Flood, 250 g ai/ha; 0 to 100 scale where 0 is no effect and 100 is complete control
Method in brief: as §1

[15] = test system: Italian ryegrass; experiment: Test A postemergence; assay type: in vivo, Lolium multiflorum; details: for Plant response rating, Ryegrass, Italian: 0 to 100 scale, 0 no effect, 100 complete control
Method in brief: as §2

[16] = test system: barnyardgrass; experiment: Test A preemergence; assay type: in vivo, Echinochloa crus-galli; details: for Plant response rating, Barnyardgrass: 0 to 100 scale where 0 is no effect and 100 is complete control
Method in brief: as §2

[17] = test system: kochia; experiment: Test A preemergence; assay type: in vivo, Kochia scoparia; details: for Plant response rating, Kochia: 0 to 100 scale where 0 is no effect and 100 is complete control
Method in brief: as §2

[18] = test system: galium; experiment: Test A postemergence; assay type: in vivo, Galium aparine; details: for Plant response rating, Galium: 0 to 100 scale, 0 no effect, 100 complete control
Method in brief: as §2

[19] = test system: kochia; experiment: Test A postemergence; assay type: in vivo, Kochia scoparia; details: for Plant response rating, Kochia: 0 to 100 scale, 0 no effect, 100 complete control
Method in brief: as §2

[20] = test system: rice; experiment: Test B flooded paddy test; assay type: in vivo, Oryza sativa; details: Flood, 250 g ai/ha; 0 to 100 scale where 0 is no effect and 100 is complete control
Method in brief: as §1

[21] = 31 g ai/ha, visual, approximately 10 days
[22] = 125 g ai/ha, 0 to 100 scale where 0 is no effect and 100 is complete control

CC(C)Oc1cnn(-c2c(C#N)cccc2Oc2ncc(F)cn2)c1 [Compound 158]
20: Plant response rating, Foxtail, Giant ([5]; 31 g ai/ha) | Plant response rating, Barnyardgrass ([7]; 31 g ai/ha) | Plant response rating, Ryegrass, Italian ([15]; 31 g ai/ha)
40: Plant response rating, Ragweed [3, 21] | Plant response rating, Pigweed ([13]; 31 g ai/ha) | Plant response rating, Rice [20]
90: Plant response rating, Foxtail, Giant ([10]; 125 g ai/ha)
30: Corn plant response rating [9, 22] | Plant response rating, Ryegrass, Italian [11, 21]
60: Blackgrass plant response rating [4, 22] | Plant response rating, Ragweed ([6]; 31 g ai/ha) | Plant response rating, Foxtail, Giant [10, 21] | Plant response rating, Galium ([18]; 31 g ai/ha) | Plant response rating, Kochia ([19]; 31 g ai/ha)
100: Galium plant response rating [18, 22]
70: Plant response rating, Pigweed ([2]; 125 g ai/ha) | Foxtail, Giant plant response rating [5, 22] | Plant response rating, Barnyardgrass ([16]; 125 g ai/ha) | Plant response rating, Kochia ([17]; 125 g ai/ha)
50: Plant response rating, Pigweed [2, 21] | Plant response rating, Blackgrass ([4]; 31 g ai/ha) | Plant response rating, Ryegrass, Italian ([11]; 125 g ai/ha) | Pigweed plant response rating [13, 22] | Plant response rating, Ducksalad [14] | Ryegrass, Italian plant response rating [15, 22] | Plant response rating, Kochia [17, 21]
80: Plant response rating, Ragweed ([3]; 125 g ai/ha) | Ragweed plant response rating [6, 22] | Barnyardgrass plant response rating [7, 22] | Kochia plant response rating [19, 22]
0: Plant response rating, Barnyardgrass [1] | Plant response rating, Wheat ([8]; 31 g ai/ha) | Wheat plant response rating [8, 22] | Plant response rating, Corn ([9]; 31 g ai/ha) | Plant response rating, Sedge, Umbrella [12]
10: Plant response rating, Barnyardgrass [16, 21]

CC(C)Oc1cnn(-c2c(C#N)cccc2Oc2ncc(Br)cn2)c1 [Compound 254]
80: Barnyardgrass plant response rating (0 to 100 scale, 0 is no effect, 100 is complete control) ([16]; 125 g ai/ha) | Kochia plant response rating (0 to 100 scale) ([17]; 125 g ai/ha)
40: Ryegrass, Italian plant response rating (0 to 100 scale) ([11]; 125 g ai/ha)
20: Plant response rating, Ragweed ([6]; 125 g ai/ha) | Plant response rating, Corn ([9]; 125 g ai/ha) | Plant response rating, Ryegrass, Italian ([15]; 125 g ai/ha) | Plant response rating, Barnyardgrass [16, 21] | Plant response rating, Kochia [17, 21] | Plant response rating, Galium ([18]; 31 g ai/ha) | Plant response rating, Kochia ([19]; 31 g ai/ha)
65: Plant response rating, Ducksalad [14]
0: Plant response rating, Barnyardgrass [1] | Plant response rating, Ragweed [3, 21] | Ragweed plant response rating (0 to 100 scale) ([3]; 125 g ai/ha) | Plant response rating, Blackgrass ([4]; 31 g ai/ha) | Plant response rating, Wheat ([8]; 31 g ai/ha) | Plant response rating, Ryegrass, Italian [11, 21] | Plant response rating, Ryegrass, Italian ([15]; 31 g ai/ha) | Plant response rating, Rice [20]
10: Plant response rating, Foxtail, Giant ([5]; 31 g ai/ha) | Plant response rating, Ragweed ([6]; 31 g ai/ha) | Plant response rating, Barnyardgrass ([7]; 31 g ai/ha) | Plant response rating, Corn ([9]; 31 g ai/ha) | Plant response rating, Pigweed ([13]; 31 g ai/ha)
90: Pigweed plant response rating (0 to 100 scale) ([2]; 125 g ai/ha) | Foxtail, Giant plant response rating (0 to 100 scale) ([10]; 125 g ai/ha)
100: Plant response rating, Galium ([18]; 125 g ai/ha)
60: Plant response rating, Blackgrass ([4]; 125 g ai/ha) | Plant response rating, Foxtail, Giant ([5]; 125 g ai/ha) | Plant response rating, Barnyardgrass ([7]; 125 g ai/ha) | Plant response rating, Sedge, Umbrella [12] | Plant response rating, Kochia ([19]; 125 g ai/ha)
30: Plant response rating, Pigweed [2, 21] | Plant response rating, Wheat ([8]; 125 g ai/ha) | Plant response rating, Foxtail, Giant [10, 21] | Plant response rating, Pigweed ([13]; 125 g ai/ha)

Reference: US9695155B2, “Herbicidal substituted pyrimidinyloxy benzene compounds” (E. I. DU PONT DE NEMOURS AND COMPANY, priority 2013, dated 2017)
